Read-outs that look alike come from different tables or passages of the source. Non-standard residues stand in square brackets, D forms with d. Residues, ends and D or L forms follow the SMILES beside them. No end group written: not given here.
Assays:
PC-3 cells = assay type: cell-based; details: 24 h
Procedure: (§1) The cytotoxicity of the peptides against the human epidermal keratinocyte line, HaCaT, was tested using the MTT cell viability assay as described in a previous study. The 100 µL of the cell suspension in a complete DMEM medium with a density of 10,000 cells/mL was seeded in a 96-well plate and incubated overnight at 37 °C in a humidified 5% CO2 atmosphere. After 4 h of starvation in a serum-free medium, 100 μL of serial dilutions (from 10^−9 M to 10^−4 M) of temporin-PKE and its analogues was added to each well, and the plate was incubated for 24 h. The serum-free medium and 0.1% Triton X-100 were used as the negative and positive control, respectively. Then, MTT solution, at a volume of 10 μL, was added to each well, and the plate was incubated for 2 h. After this, the medium was replaced by 100 μL of DMSO, and plates were put in the shaking incubator for 15 min. The absorbance of each well was measured using a microplate reader (EL808, Biolise BioTek, Winooski, VT, USA) set to a wavelength of 570 nm. The equation used to calculate the viability of the cells is shown below: Cell viability (%)=A−Ab/An−Ab×100% where A represents the absorbance of each treatment group, Ab represents the average absorbance of the wells in the blank control group (cells not exposed to the test peptide and MTT), and An represents the average absorbance of the wells in the negative control group (cells not exposed to the test peptide).
(§2) The anti-proliferative activities of peptides against HCT-116, NCI-H838 (H838), U251MG, PC-3, and NCI-H157 cell lines were determined by MTT cell viability assay, and the details were described in Section 2.9.

NCI-H157 cells = assay type: cell-based; details: 24 h
Procedure: as §1, §2

NCI-H838 (H838) cells = assay type: cell-based; details: 24 h
Procedure: as §1, §2

HCT-116 cells = assay type: cell-based; details: 24 h
Procedure: as §1, §2

U251MG cells = assay type: cell-based; details: 24 h
Procedure: as §1, §2

[1] = system: E. coli (ATCC CRM 8739) biofilm; assay type: cell-based, Escherichia coli; details: ATCC CRM 8739, 24 h
Procedure: (§3) The anti-biofilm activities of the peptides against S. aureus (ATCC 6538), MRSA (NCTC 12493), E. faecalis (NCTC 12697), E. coli (ATCC CRM 8739), K. pneumoniae (ATCC 43816), and P. aeruginosa (ATCC CRM 9027), were evaluated. For the MBIC assay, 99 µL of bacterial suspension (5 × 10^5 CFU/mL) was mixed with 1 µL of serial dilutions (from 100 µM to 51,200 µM) of temporin-PKE and its analogues in a 96-well plate, and the plate was incubated in a moist shaking incubator at a speed of 200 rpm at 37 °C for 24 h. For the MBEC assay, 100 µL of bacterial suspension (5 × 10^5 CFU/mL) in each well was seeded in a new 96-well plate, and the plate was put into the same shaking incubator for 24 h incubation to allow biofilm formation on the well. After biofilm formation, the biofilm in the plate was washed with PBS twice. The PBS was aspirated between washes to remove planktonic bacterial cells. The washed biofilm in each well was treated with 100 µL of serial dilutions (from 1 µM to 512 µM) of the test peptides. Then, the plate was incubated in the same shaking incubator for another 24 h. After being washed by PBS twice and fixed with methanol, the biofilm in each well was incubated with 100 µL of 0.1% crystal violet for 30 min, and the stained biofilm was dissolved in 100 µL of glacial acidic acid after drying. The solutions were transferred to a new microplate, and the absorbance of each well was measured using a microplate reader (EL808, Biolise BioTek, Winooski, VT, USA) set to 595 nm wavelength. The MBIC was the minimum concentration of the peptide showing no biofilm formation. The MBEC is the lowest concentration of the peptide capable of eradicating the mature biofilms, which had no biofilm in the well.

[2] = system: S. aureus (ATCC 6538) biofilm; assay type: cell-based, Staphylococcus aureus; details: ATCC 6538, 24 h
Procedure: as §3

[3] = system: K. pneumoniae (ATCC 43816) biofilm; assay type: cell-based, Klebsiella pneumoniae; details: ATCC 43816, 24 h
Procedure: as §3

[4] = system: K. pneumoniae (ATCC 43816); test: microbe, parasite or virus in culture; assay type: cell-based, Klebsiella pneumoniae; details: for MBC: ATCC 43816, 18 h; for MIC: ATCC 43816, 24 h
Procedure: (§4) The antimicrobial activities of peptides were evaluated against the Gram-positive bacteria, S. aureus (ATCC 6538), methicillin-resistant Staphylococcus aureus (MRSA) (NCTC 12493), Enterococcus faecalis (E. faecalis) (NCTC 12697); the Gram-negative bacteria, E. coli (ATCC CRM 8739), Klebsiella pneumoniae (K. pneumoniae) (ATCC 43816), Pseudomonas aeruginosa (P. aeruginosa) (ATCC CRM 9027); and the yeast, Candida albicans (C. albicans) (ATCC CRM 10231). Clinical isolates of MRSA (B042 V2E1 A), E. coli (ATCC BAA-2340), K. pneumoniae (ATCC BAA-1705), and P. aeruginosa (B004 V2S2 B) were also used to determine their antimicrobial activities. The suspension of microorganisms in the logarithmic growth phase with a specific final density (Gram-negative and Gram-positive bacteria: 5 × 10^5 CFU/mL; yeast: 1 × 10^6 CFU/mL) was incubated with different peptide concentrations from 1 µM to 512 µM at 37 °C for 24 h. PBS was used as the negative control, and norfloxacin and amphotericin B were selected as the positive control for bacteria and yeast, respectively. Since the Norfloxacin had weak activities against P. aeruginosa (B004 V2S2 B) and K. pneumoniae (ATCC BAA 1705), gentamicin was used as the positive control for these two bacterial strains. The absorbance of each well was obtained using a microplate reader (EL808, Biolise BioTek, Winooski, VT, USA) set at 550 nm wavelength. The MIC value was the lowest concentration of a peptide that inhibits visible bacterial growth. Once the MIC values were determined, an aliquot from the bacterial culture exposed to the peptide at or above its MIC value was inoculated on a Mueller Hinton agar (MHA) and was incubated at 37 for 18 h. The MBC value was the lowest concentration of a peptide that kills 99.9% of bacteria.

[5] = system: K. pneumoniae (ATCC BAA-1705); test: microbe, parasite or virus in culture; assay type: cell-based, Klebsiella pneumoniae; details: for MBC: ATCC BAA-1705, 18 h; for MIC: ATCC BAA-1705, 24 h
Procedure: as §4

[6] = system: E. faecalis (NCTC 12697) biofilm; assay type: cell-based, Enterococcus faecalis; details: NCTC 12697, 24 h
Procedure: as §3

Molecule	IC50 (PC-3 cells)	IC50 (NCI-H157 cells)	IC50 (NCI-H838 (H838) cells)	IC50 (HCT-116 cells)	IC50 (U251MG cells)	MBIC [1]	MBIC [2]	MBIC [3]	MBC [4]	MIC [4]	MBC [5]	MIC [5]	MBIC [6]	MBC ([4]; read-out: MBC)	MIC ([4]; read-out: MIC)	MBC ([5]; read-out: MBC)	MIC ([5]; read-out: MIC)
FLPKIIGKLSSKLPKIF-NH2 [Temporin-PKE-4K]	49.5 µM	27.8 µM	35.3 µM	99.4 µM	85.5 µM	128 µM	32 µM	256 µM	16 µM	16 µM	32 µM	32 µM	256 µM	–	–	–	–
FLPLIIGKLSSLLPKIF-NH2 [Temporin-PKE-2K]	2.64 µM	2.78 µM	3.07 µM	2.84 µM	2.49 µM	64 µM	2 µM	128 µM	–	–	16 µM	16 µM	16 µM	32 µM	16 µM	–	–
CC[C@@H](C)[C@@H](NC(=O)[C@H](CCCCN)NC(=O)[C@@H]1CCCN1C(=O)[C@H](CC(C)C)NC(=O)[C@H](CC(C)C)NC(=O)[C@H](CO)NC(=O)[C@H](CO)NC(=O)[C@H](CC(C)C)NC(=O)[C@H](C)NC(=O)CNC(=O)[C@H](NC(=O)[C@H](NC(=O)[C@H](CC(C)C)NC(=O)[C@@H]1CCCN1C(=O)[C@H](CC(C)C)NC(=O)[C@@H](N)Cc1ccccc1)[C@H](C)CC)[C@H](C)CC)C(=O)N[C@@H](Cc1ccccc1)C(N)=O [Temporin-PKE-3i] (H-FLPL[dI][dI]GALSSLLPK[dI]F-NH2)	167 µM	71.2 µM	193 µM	72.1 µM	121 µM	>512 µM	64 µM	>512 µM	–	–	–	–	128 µM	>512 µM	>512 µM	>512 µM	>512 µM
CC[C@@H](C)[C@@H](NC(=O)[C@H](CCCCN)NC(=O)[C@@H]1CCCN1C(=O)[C@H](CC(C)C)NC(=O)[C@H](CC(C)C)NC(=O)[C@H](CO)NC(=O)[C@H](CO)NC(=O)[C@H](CC(C)C)NC(=O)[C@H](C)NC(=O)CNC(=O)[C@@H](NC(=O)[C@@H](NC(=O)[C@H](CC(C)C)NC(=O)[C@@H]1CCCN1C(=O)[C@H](CC(C)C)NC(=O)[C@@H](N)Cc1ccccc1)[C@@H](C)CC)[C@@H](C)CC)C(=O)N[C@@H](Cc1ccccc1)C(N)=O [Temporin-PKE-i] (H-FLPLIIGALSSLLPK[dI]F-NH2)	3.35 µM	2.94 µM	5.28 µM	3.07 µM	4.46 µM	>512 µM	2 µM	>512 µM	–	–	–	–	4 µM	>512 µM	>512 µM	>512 µM	>512 µM
FLPLIIGALSSLLPKIF-NH2 [Temporin-PKE]	7.29 µM	17.4 µM	16.4 µM	21.3 µM	23.2 µM	>512 µM	2 µM	>512 µM	–	–	–	–	32 µM	>512 µM	>512 µM	>512 µM	>512 µM
FLPLIIGALSSKLPKIF-NH2 [Temporin-PKE-K12]	27.3 µM	24 µM	22.7 µM	22.1 µM	25.8 µM	64 µM	4 µM	512/>512 μM	–	–	64 µM	64 µM	64 µM	64 µM	32 µM	–	–
FLPKIIGKLSSLLPKIF-NH2 [Temporin-PKE-3K]	3.01 µM	3.29 µM	0.51 µM	0.38 µM	2.83 µM	16 µM	2 µM	32 µM	4/4 μM	–	8 µM	8 µM	4 µM	–	4 µM	–	–
